From PMC6934184, “Selective DNA-PKcs inhibition extends the therapeutic index of localized radiotherapy and chemotherapy” (The Journal of Clinical Investigation, 2019)

Target: T1, GRK4 (Homo sapiens, UniProt P32298)
T1 construct: purchased Thermo Fisher Scientific (Life Technologies) SelectScreen
Test: SelectScreen Z'LYTE
Type: biochemical
In short: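 Compound tested in SelectScreen activity assays, Z'LYTE for CSF1R, CDK1/cyclin B and MAP2K6 and Adapta for CAMK1. ATP for CAMK1 was listed as 10, and Km app was used for CSF1R. Results are expressed in percent.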

T1 sequence (P32298 whole entry): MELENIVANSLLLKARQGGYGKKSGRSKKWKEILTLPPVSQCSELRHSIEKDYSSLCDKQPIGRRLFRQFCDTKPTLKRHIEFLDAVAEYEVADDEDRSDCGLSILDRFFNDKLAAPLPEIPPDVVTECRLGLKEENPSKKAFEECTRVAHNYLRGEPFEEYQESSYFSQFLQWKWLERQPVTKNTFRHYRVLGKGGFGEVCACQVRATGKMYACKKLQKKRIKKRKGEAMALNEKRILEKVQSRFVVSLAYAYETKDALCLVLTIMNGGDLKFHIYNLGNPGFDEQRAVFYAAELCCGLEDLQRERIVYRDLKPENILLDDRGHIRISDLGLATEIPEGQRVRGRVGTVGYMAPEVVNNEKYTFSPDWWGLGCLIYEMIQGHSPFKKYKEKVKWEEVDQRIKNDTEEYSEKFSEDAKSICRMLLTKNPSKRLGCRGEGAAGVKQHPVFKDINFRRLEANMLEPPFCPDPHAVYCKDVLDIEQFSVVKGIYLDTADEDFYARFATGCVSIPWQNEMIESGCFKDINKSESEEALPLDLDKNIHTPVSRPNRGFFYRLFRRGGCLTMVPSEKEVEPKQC

CN(C(=O)CN1CCOCC1)c1ccc2sc3c(-c4cccc5c(=O)cc(N6CC7CCC(C6)O7)oc45)cccc3c2c1 [NU5455]
inhibition at 1 µM: 3.5%
